Assay results as given in ChEMBL document CHEMBL1144964, “Inhibition of mandelate racemase by alpha-fluorobenzylphosphonates” (Bioorg Med Chem Lett, 2003).

Tests used:
Mandelate racemase = target: T1, Mandelate racemase (Pseudomonas putida, UniProt P11444); assay: Inhibition constant against Mandelate racemase from Pseudomonas putida at pH 7.5
T1 sequence (P11444 whole entry): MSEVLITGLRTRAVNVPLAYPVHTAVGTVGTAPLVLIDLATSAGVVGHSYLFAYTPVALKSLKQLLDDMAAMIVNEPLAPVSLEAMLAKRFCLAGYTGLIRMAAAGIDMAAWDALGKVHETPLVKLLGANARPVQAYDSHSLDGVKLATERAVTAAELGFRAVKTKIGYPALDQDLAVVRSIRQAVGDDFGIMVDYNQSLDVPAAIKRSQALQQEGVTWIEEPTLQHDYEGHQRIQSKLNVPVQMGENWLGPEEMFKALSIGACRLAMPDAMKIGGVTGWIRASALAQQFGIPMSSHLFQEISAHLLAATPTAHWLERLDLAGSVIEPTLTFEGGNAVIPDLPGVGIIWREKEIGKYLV

[1] = pKa2 (Dissociation constant) value (phosphonate group) was determined; format: physicochemical; conditions: read-out: pKa2
[2] = Inhibition constant against Mandelate racemase from Pseudomonas putida at pH 6.3
[3] = Inhibition constant against mandelate racemase from Pseudomonas putida at pH 6.3

SMILES | Ki (Mandelate racemase) [µM] | pKa [1] | Ki [2] [µM] | Ki [3] [µM]
O=P(O)(O)C(F)c1ccccc1 (racemic) | 810 |  |  | 
O=P(O)(O)C(O)c1ccccc1 (racemic) [ALPHA HYDROXY BENZYLPHOSPHONATE] | 4.7 | 6.89 |  | 
O=P(O)(O)[C@@H](O)c1ccccc1 | 34 | 6.89 |  | 
O=P(O)(O)[C@H](F)c1ccccc1 | 530 |  | 87 | 
O=P(O)(O)C(F)(F)c1ccccc1 | 12000 |  |  | 1000
O=C(c1ccccc1)P(=O)(O)O [BENZOYLPHOSPHONATE] | 300 | 5.46 |  | 
O=P(O)(O)[C@@H](F)c1ccccc1 | 1110 |  |  | 
O=P(O)(O)[C@H](O)c1ccccc1 | 1.1 | 6.89 |  | 
O=P(O)(O)Cc1ccccc1 [BENZYLPHOSPHONIC ACID] | 3600 |  |  | 
